In patent publication US8455475B2 (Gruenenthal GmbH, priority 2009, dated 2013):

What was measured:
[1] = target: T1, human B1R (bradykinin receptor 1) (Homo sapiens, UniProt P46663); test: FLIPR Ca2+ assay (Fluo-4) on CHO K1 cells stably transfected with the human B1R gene (hB1R cells): % inhibition at 10 μM / IC50, agonist Lys-Des-Arg9-bradykinin; assay type: cell-based; conditions: CHO-K1, human B1R
T1 construct: expressed in transfected cells; host or cells: CHO K1 cells
T1 sequence (P46663 1-353): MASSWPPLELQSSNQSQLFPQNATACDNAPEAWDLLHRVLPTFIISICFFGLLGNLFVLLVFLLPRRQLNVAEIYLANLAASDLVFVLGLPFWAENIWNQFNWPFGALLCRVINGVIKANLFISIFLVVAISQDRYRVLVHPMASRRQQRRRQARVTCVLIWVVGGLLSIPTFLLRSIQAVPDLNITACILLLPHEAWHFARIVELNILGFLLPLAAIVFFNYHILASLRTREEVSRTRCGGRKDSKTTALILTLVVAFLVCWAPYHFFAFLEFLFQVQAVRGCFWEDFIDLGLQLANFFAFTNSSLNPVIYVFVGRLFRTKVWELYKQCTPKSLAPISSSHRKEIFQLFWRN
Outline: (§1)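 Peak fluorescence counts read on FLIPR (λex 488, λem 540 nm) after two additions: compound first, then agonist at EC80 after 10–20 min. Human line challenged with Lys-Des-Arg9-bradykinin, rat line with Des-Arg9-bradykinin. Suppression of Ca2+ inflow expressed as % of maximum inhibition.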

[2] = target: T2, rat B1R (bradykinin receptor 1) (Rattus norvegicus, UniProt P97583); test: FLIPR Ca2+ assay (Fluo-4) on CHO K1 cells stably transfected with the B1R gene of the rat (rB1R cells): % inhibition at 10 μM / IC50, agonist Des-Arg9-bradykinin; assay type: cell-based; conditions: CHO-K1, rat B1R
T2 construct: expressed in transfected cells; host or cells: CHO K1 cells
T2 sequence (P97583 1-337): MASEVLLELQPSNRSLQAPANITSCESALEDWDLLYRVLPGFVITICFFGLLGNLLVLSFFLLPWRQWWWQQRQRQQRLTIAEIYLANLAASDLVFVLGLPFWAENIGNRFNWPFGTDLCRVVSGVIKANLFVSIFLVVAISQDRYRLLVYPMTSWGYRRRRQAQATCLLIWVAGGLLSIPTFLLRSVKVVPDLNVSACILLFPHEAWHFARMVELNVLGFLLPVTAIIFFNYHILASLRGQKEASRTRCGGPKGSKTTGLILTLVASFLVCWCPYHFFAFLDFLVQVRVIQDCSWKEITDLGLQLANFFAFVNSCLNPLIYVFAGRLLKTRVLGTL
Outline: as §1

Compound | inhibition at 10 µM [1] | inhibition at 10 µM [2]
Cc1cccc(Cl)c1S(=O)(=O)NC1c2cc(C(=O)N3CCC4(CC3)CCN(c3ccncc3)CC4)ccc2CC1(C)C (centres unmarked) [IND_CC-240, 2-Chloro-N-[2,2-dimethyl-6-(9-pyridin-4-yl-3,9-diazaspiro[5.5]undecane-3-carbonyl)-1,3-dihydro-inden-1-yl]-6-methyl-benzenesulfonic acid amide] | 95% | 99%
CC1(C)CC(NC(=O)c2c(Cl)cccc2C(F)(F)F)c2cc(C(=O)N3CCC4(CC3)CCN(c3ccncc3)CC4)ccc21 (centres unmarked) [IND_CC-243, 2-Chloro-N-[3,3-dimethyl-6-(3-pyridin-4-yl-3,9-diazaspiro[5.5]undecane-9-carbonyl)-1,2-dihydro-inden-1-yl]-6-(trifluoromethyl)-benzamide] | 100% | 99%
CC1(C)CC(NC(=O)c2cc(Cl)ccc2Cl)c2cc(C(=O)N3CCC4(CC3)CCN(c3ccncc3)CC4)ccc21 (centres unmarked) [IND_CC-244, 2,5-Dichloro-N-[3,3-dimethyl-6-(3-pyridin-4-yl-3,9-diazaspiro[5.5]undecane-9-carbonyl)-1,2-dihydro-inden-1-yl]-benzamide] | 99% | 103%
COc1ccc(C(=O)NC2CC(C)(C)c3ccc(C(=O)N4CCC5(CC4)CCN(c4ccncc4)CC5)cc32)c(Cl)c1 (centres unmarked) [IND_CC-246, 2-Chloro-N-[3,3-dimethyl-6-(3-pyridin-4-yl-3,9-diazaspiro[5.5]undecane-9-carbonyl)-1,2-dihydro-inden-1-yl]-4-methoxy-benzamide] | 99% | 100%
Cc1ccc(F)c(C(=O)NC2CC(C)(C)c3ccc(C(=O)N4CCC5(CC4)CCN(c4ccncc4)CC5)cc32)c1Cl (centres unmarked) [IND_CC-248, 2-Chloro-N-[3,3-dimethyl-6-(3-pyridin-4-yl-3,9-diazaspiro[5.5]undecane-9-carbonyl)-1,2-dihydro-inden-1-yl]-6-fluoro-3-methyl-benzamide] | 90% | 102%
CC1(C)CC(NC(=O)c2cc(C(F)(F)F)ccc2Cl)c2cc(C(=O)N3CCC4(CC3)CCN(c3ccncc3)CC4)ccc21 (centres unmarked) [IND_CC-250, 2-Chloro-N-[3,3-dimethyl-6-(3-pyridin-4-yl-3,9-diazaspiro[5.5]undecane-9-carbonyl)-1,2-dihydro-inden-1-yl]-5-(trifluoromethyl)-benzamide] | 94% | 100%
CC1(C)CC(NC(=O)c2cc(F)ccc2Cl)c2cc(C(=O)N3CCC4(CC3)CCN(c3ccncc3)CC4)ccc21 (centres unmarked) [IND_CC-252, 2-Chloro-N-[3,3-dimethyl-6-(3-pyridin-4-yl-3,9-diazaspiro[5.5]undecane-9-carbonyl)-1,2-dihydro-inden-1-yl]-5-fluoro-benzamide] | 100% | 102%
CC1(C)CC(NC(=O)c2cccc(C(F)(F)F)c2Cl)c2cc(C(=O)N3CCC4(CC3)CCN(c3ccncc3)CC4)ccc21 (centres unmarked) [IND_CC-254, 2-Chloro-N-[3,3-dimethyl-6-(3-pyridin-4-yl-3,9-diazaspiro[5.5]undecane-9-carbonyl)-1,2-dihydro-inden-1-yl]-3-(trifluoromethyl)-benzamide] | 97% | 105%
Cc1cccc(Cl)c1S(=O)(=O)NC1CC(C)(C)c2ccc(C(=O)N3CCC4(CC3)CCN(c3ccncc3)CC4)cc21 (centres unmarked) [IND_CC-259, 2-Chloro-N-[3,3-dimethyl-6-(3-pyridin-4-yl-3,9-diazaspiro[5.5]undecane-9-carbonyl)-1,2-dihydro-inden-1-yl]-6-methyl-benzenesulfonic acid amide] | 99% | 100%
CN(C(=O)c1ccc(F)cc1Cl)C1CCc2ccc(C(=O)N3CCC4(CC3)CCN(c3ccncc3)CC4)cc21 (centres unmarked) [IND_CC-261, 2-Chloro-4-fluoro-N-methyl-N-[6-(9-pyridin-4-yl-3,9-diazaspiro[5.5]undecane-3-carbonyl)-2,3-dihydro-1H-inden-1-yl]-benzamide] | 100% | 103%

Other lines, results leading:

inhibition at 10 µM [1] | inhibition at 10 µM [2] | Compound
95% | 101% | O=C(c1ccc2c(c1)C(NS(=O)(=O)CCc1ccccc1Cl)CC2)N1CCC2(CC1)CCN(c1ccncc1)CC2 (centres unmarked) [IND_CC-241, 2-(2-Chlorophenyl)-N-[6-(9-pyridin-4-yl-3,9-diazaspiro[5.5]undecane-3-carbonyl)-2,3-dihydro-1H-inden-1-yl]-ethanesulfonic acid amide]
94% | 101% | CC1(C)Cc2ccc(C(=O)N3CCC4(CC3)CCN(c3ccncc3)CC4)cc2C1NS(=O)(=O)CCc1ccccc1Cl (centres unmarked) [IND_CC-242, 2-(2-Chlorophenyl)-N-[2,2-dimethyl-6-(9-pyridin-4-yl-3,9-diazaspiro[5.5]-undecane-3-carbonyl)-1,3-dihydro-inden-1-yl]-ethanesulfonic acid amide]
100% | 101% | O=C(NC1CCc2ccc(C(=O)N3CCC4(CCN(c5ccncc5)CC4)C3)cc21)c1cc(Cl)ccc1Cl (centres unmarked) [IND_CC-245, 2,5-Dichloro-N-[6-(8-pyridin-4-yl-2,8-diazaspiro[4.5]decane-2-carbonyl)-2,3-dihydro-1H-inden-1-yl]-benzamide]
99% | 102% | COc1ccc(C(=O)NC2CCc3ccc(C(=O)N4CCC5(CCN(c6ccncc6)CC5)C4)cc32)c(Cl)c1 (centres unmarked) [IND_CC-247, 2-Chloro-4-methoxy-N-[6-(8-pyridin-4-yl-2,8-diazaspiro[4.5]decane-2-carbonyl)-2,3-dihydro-1H-inden-1-yl]-benzamide]
99% | 99% | Cc1ccc(F)c(C(=O)NC2CCc3ccc(C(=O)N4CCC5(CCN(c6ccncc6)CC5)C4)cc32)c1Cl (centres unmarked) [IND_CC-249, 2-Chloro-6-fluoro-3-methyl-N-[6-(8-pyridin-4-yl-2,8-diazaspiro[4.5]decane-2-carbonyl)-2,3-dihydro-1H-inden-1-yl]-benzamide]
100% | 99% | O=C(NC1CCc2ccc(C(=O)N3CCC4(CCN(c5ccncc5)CC4)C3)cc21)c1cc(C(F)(F)F)ccc1Cl (centres unmarked) [IND_CC-251, 2-Chloro-N-[6-(8-pyridin-4-yl-2,8-diazaspiro[4.5]decane-2-carbonyl)-2,3-dihydro-1H-inden-1-yl]-5-(trifluoromethyl)-benzamide]
100% | 100% | O=C(NC1CCc2ccc(C(=O)N3CCC4(CCN(c5ccncc5)CC4)C3)cc21)c1cc(F)ccc1Cl (centres unmarked) [IND_CC-253, 2-Chloro-5-fluoro-N-[6-(8-pyridin-4-yl-2,8-diazaspiro[4.5]decane-2-carbonyl)-2,3-dihydro-1H-inden-1-yl]-benzamide]
100% | 100% | O=C(NC1CCc2ccc(C(=O)N3CCC4(CCN(c5ccncc5)CC4)C3)cc21)c1cccc(C(F)(F)F)c1Cl (centres unmarked) [IND_CC-255, 2-Chloro-N-[6-(8-pyridin-4-yl-2,8-diazaspiro[4.5]decane-2-carbonyl)-2,3-dihydro-1H-inden-1-yl]-3-(trifluoromethyl)-benzamide]
99% | 100% | CC1(C)CC(NS(=O)(=O)Cc2ccccc2C(F)(F)F)c2cc(C(=O)N3CCC4(CC3)CCN(c3ccncc3)CC4)ccc21 (centres unmarked) [IND_CC-256, N-[3,3-Dimethyl-6-(3-pyridin-4-yl-3,9-diazaspiro[5.5]undecane-9-carbonyl)-1,2-dihydro-inden-1-yl]-1-[2-(trifluoromethyl)-phenyl]-methanesulfonic acid amide]
100% | 95% | O=C(c1ccc2c(c1)C(NS(=O)(=O)Cc1ccccc1C(F)(F)F)CC2)N1CCC2(CCN(c3ccncc3)CC2)C1 (centres unmarked) [IND_CC-258, N-[6-(8-Pyridin-4-yl-2,8-diazaspiro[4.5]decane-2-carbonyl)-2,3-dihydro-1H-inden-1-yl]-1-[2-(trifluoromethyl)-phenyl]-methanesulfonic acid amide]
100% | 100% | CC1(C)CC(NS(=O)(=O)CCc2ccccc2Cl)c2cc(C(=O)N3CCC4(CC3)CCN(c3ccncc3)CC4)ccc21 (centres unmarked) [IND_CC-260, 2-(2-Chlorophenyl)-N-[3,3-dimethyl-6-(3-pyridin-4-yl-3,9-diazaspiro[5.5]-undecane-9-carbonyl)-1,2-dihydro-inden-1-yl]-ethanesulfonic acid amide]
100% | 105% | O=C(NC1CCc2ccc(C(=O)N3CCC4(CC3)CCN(c3ccncc3)CC4)cc21)c1ccc(F)cc1Cl (centres unmarked) [IND_CC-262, 2-Chloro-4-fluoro-N-[6-(9-pyridin-4-yl-3,9-diazaspiro[5.5]undecane-3-carbonyl)-2,3-dihydro-1H-inden-1-yl]-benzamide]
